This experiment concerns the target T1, mushroom tyrosinase (TYR) (Agaricus bisporus, UniProt C7FF04).
T1 construct: gene PPO3
Kind of experiment: dopachrome assay with L-DOPA substrate; partial inhibition only (maximum about […]; IC20 […]). Format: biochemical.

The structures appear in SMILES notation.

T1 sequence (C7FF04 2-392): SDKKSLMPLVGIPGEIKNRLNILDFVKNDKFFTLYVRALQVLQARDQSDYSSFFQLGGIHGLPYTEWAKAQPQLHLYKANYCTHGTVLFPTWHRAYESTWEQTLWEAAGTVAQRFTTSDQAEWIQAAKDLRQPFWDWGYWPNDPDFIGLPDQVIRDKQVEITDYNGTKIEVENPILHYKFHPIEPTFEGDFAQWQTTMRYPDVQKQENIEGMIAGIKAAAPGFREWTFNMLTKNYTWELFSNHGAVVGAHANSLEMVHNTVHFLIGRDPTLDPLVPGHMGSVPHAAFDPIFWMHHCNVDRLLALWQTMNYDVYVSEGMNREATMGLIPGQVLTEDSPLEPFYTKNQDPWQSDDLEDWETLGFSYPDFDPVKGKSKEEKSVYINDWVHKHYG

Take `Oc1cc(O)c2c(c1)O[C@H](c1ccc(O)c(O)c1)[C@@H](O)C2` [CH, catechin hydrate]: the Emax (commonly the size of the effect at its maximum, as opposed to the concentration needed) is roughly 25%.

For the origin of these results see article PMC9919157, “Synergistic Inhibiting Effect of Phytochemicals in Rheum palmatum on Tyrosinase Based on Metabolomics and Isobologram Analyses” (Molecules, 2023).
